“Also recorded” adds a separate entry of the source.
Key:
water solubility of EC17 = type: physicochemical
HOS-FRα tumors = experiment: subcutaneous HOS-FRα osteosarcoma xenograft, E2 CAR-T cells plus EC17; type: in vivo
Text: A dosing regimen is shown in FIG. 21 which includes administration of about 5 million E2 CAR T cells at day −3; administration of EC17 at days 0, 3, 7, 14, 17, 21, 28, 31 and 35. Sequential escalating doses of EC17 will be administered under the following rules: If no CRS or neurotoxicity, advance through EC17 dose escalation as planned. If CRS grade≤2, administer all subsequent EC17 doses at die Sequence level that provoked the non-serious CRS in the stone cycle. If CRS grade>2, cancel further EC17 doses in the current Cycle, and commence all subsequent Cycles at the next highest Sequence below that which provoked the severe CRS (sCRS).
HOS-FRα (i.e. HOS-143b-LV-FRα) is a subclone of HOS-143B (ATCC CRL-8303) stably transfected with human FRα. HOS-143B was originally derived from a […] with osteosarcoma. The tumor cells were grown in folate-deficient RPMI 1640 with 5% FBS at 37° C. in a 5% CO2 humidified atmosphere. For the in-vivo study, tumor cells were inoculated subcutaneously at 1×10^6 cells per animal.
EGFRt-sorted anti-FITC E2 scFv-CAR T cells were frozen in a T-cell freezing medium. Upon arrival, vials of frozen CAR-T cells were immediately stored at −80° C. The CAR-T cells were quickly thawed at 37° C., washed twice with PBS, and used for animal injection at 6 million viable EGFRt+E2 CAR-T cells (CD4/CD8 at ~1:1) per animal. A small aliquot was taken on the day infusion for flow cytometric analysis of E2-CAR T-cell phenotypes.
EC17 dosing solutions were prepared when dosing began by weighing appropriate amounts of each compound, reconstituting in PBS, pH 7.4, sterile filtering the drug solution through a 0.22 pm PVDF syringe filter, and freezing aliquots for each day of dosing at −20° C.
All EC17 doses were given towards the end of day (3-4 PM) to allow potential CRS (cytokine release syndrome) to develop overnight.
Tumor growth, body weight, and overall assessment: Tumor sizes were monitored 2-3 times/week and body weight measured 2-3 times/week. On the days immediately after any EC17 dose, body weight measurement was taken daily and attention was given to gross animal morphology and behavior.
Euthanasia: Euthanasia was performed when mice had lost ≥20% of their weight, when tumors reached ≥1500 mm^3. Euthanasia was also performed if mice lost a lot of weight in a short duration (e.g., due to severe head-tilt), or when they approached moribund conditions per CRS grading system.
All animal care and use were performed according to NIH guidelines and in compliance with protocols approved by the Purdue University Animal Use and Care Committee. Female 4 to 5-week-old NOD/SCID gamma (NSG™) mice (stock number:005557) were purchased from The Jackson Faboratory (Bar Harbor, ME). Unless specifically indicated, all animals were maintained on a FA-deficient diet (TestDiet, St. Fouis, MO) upon arrival and throughout the study. To establish subcutaneous xenografts, MDA-MB-231 and HOS-FRα were implanted in the right flank region at 2.5×10^6 and 1×10^6 cells per animal, respectively. For intravenous xenografts, THP1-FRβ) cells were inoculated at 5×10^6 cells per animal. Subcutaneous tumors were measured 2-3 times per week with a caliper and calculated using the ellipsoidal formula (length×width2)/2. […] All animal doses (CAR-T cells, EC17, sodium fluorescein) were given intravenously.
In a therapeutic setting, EC17 CAM can be given before or after CAR-T cell injection. […]

[1] = E2 CAR-T cells + EC17 5/100/1000 nmol/kg, M/Th/M (Cohort 2)

## NC1=NC2N=CC(CNc3ccc(C(=O)N[C@@H](CCC(=O)NCCNC(=S)Nc4ccc(-c5c6ccc(=O)cc-6oc6cc(O)ccc56)c(C(=O)O)c4)C(=O)O)cc3)=NC2C(=O)N1 (stereo partly drawn) [EC17, FA-(γ)-ethylenediamine-FITC]
Water solubility of EC17
  water solubility: good water solubility
HOS-FRα tumors; [1]
  body weight loss or CRS: without body weight loss or CRS
  tumor volume of HOS-FRα tumors: significant tumor regression
HOS-FRα tumors; EC17 dose escalation M/Th/M, at euthanasia days 33 and 47
  CAR-T cell expansion in whole blood (flow cytometry): EC17-dependent CAR-T cell expansion up to day 47 but higher on day 33
HOS-FRα tumors; ~6 million E2-CAR-T cells + EC17 5/10/100, 5/30/300, 5/50/500 nmol/kg in Cycles 1-3, M/Th/M
  CRS or body weight loss: no CRS or body weight loss
HOS-FRα tumors; ~6 million E2-CAR-T cells + EC17 5/10/100, 5/30/300, 5/50/500 nmol/kg in Cycles 1-3, M/Th/M, 6-day break
  HOS-FRα tumor growth: significant delay in tumor growth within the first two cycles of treatment; also recorded: stopped responding to treatment in Cycle 3

From US20260263517A1, “THERAPEUTIC METHODS WITH TARGET-LINKED SMALL MOLECULES AND ANTI-TARGET CAR T CELLS” (Seattle Children's Hospital (dba Seattle Children's …, priority 2022, published 2026)
